Measurements reported in US20240299568A1, “BONE-SPECIFIC DELIVERY OF POLYPEPTIDES” (William Marsh Rice University, priority 2021, published 2024).

System: MDA-MB-361 cells
Assay: MDA-MB-361 bone micrometastasis xenograft (IIA injection)
[1] = significance vs PBS group, end of experiment

NCCCC(O)(P(=O)(O)O)P(=O)(O)O [ALN, Alendronate]
bone mass loss of femurs (microCT) (82 days after tumor implantation): significant losses of bone mass
development of micrometastases / lesions (BLI imaging) (ALN 10 μg/kg, Tras, Tras-ALN 1 mg/kg, retro-orbital twice a week): accumulated rapidly
tumor burden, histomorphometric analysis of tibiae and femurs (H&E bone sections): high tumor burdens
BLI Fold-increase (significance vs PBS group, BLI of day 87/BLI of day 6, two-way ANOVA): NS (NS represents P > 0.05)
Osteoclast activity Osteoclast number (significance vs PBS group, TRAP-stained tibia/femur sections, end of experiment): * (* P < 0.05)
Osteoclast activity Serum Calcium [1]: NS (NS represents P > 0.05)
Osteoclast activity Serum TRACP 5b [1]: NS (NS represents P > 0.05)
Survival (significance vs PBS group, endpoint BLI intensity over 10^7, log-rank test): NS (NS represents P > 0.05)
BLI Progression (significance vs PBS group, whole-body BLI over the course of the experiment, two-way ANOVA): NS (NS represents P > 0.05)
